In US20250066370A1, “BICYCLIC TRIAZINE DERIVATIVES FOR THE TREATMENT OF CANCER” (DEUTSCHES KREBSFORSCHUNGSZENTRUM, priority 2022, published 2025):

Legend:
[1] = test system: BRCA1 mRNA expression in MDA-MB-231 cells; assay: qRT-PCR assay: inhibition of BRCA1 mRNA expression in MDA-MB-231 cells; type: cell-based; conditions: Homo sapiens, 24 h exposure, BRCA1 normalised to GAPDH, median, read-out: RTqPCR-MDA-MB-231, IC50 [mol/l], BRCA1 (median)
Method: 3. qRT-PCR Assay: BRCA1, ATR, MCL1 in MDA-MB-231, CAL-120
Tissue cultured human MDA-MB-231 human breast cancer cells were plated in 500 microL per well at 200,000 cells/well in a 24 well microtiter plate. After 24 h, the cells were exposed continuously for 24 h to test substances (substances were added with Tecan HP D300 Dispenser). RNA was prepared using Qiagen RNeasy MiniKit (#74106), RNA was quantified using a NanoDrop Equipment, and 600 nano grams of RNA was converted to cDNA using a SuperScript VILO kit (Thermofisher #11755050) followed by qPCR amplification. BRCA1 and ATR gene expression was measured by RT-qPCR and normalised to GAPDH housekeeping gene expression. qPCR primer sets have been purchased from Thermo Fisher Scientific/Applied Biosystems: BRCA1, #Hs 01556193; ATR. #Hs 00992123: GAPDH. #Hs 03929097.

CDK12/CyclinK = CDK12/CyclinK (Homo sapiens (Human), UniProt Q9NYV4); assay: CDK12/CycK high ATP kinase assay (TR-FRET); type: biochemical; conditions: for IC50: 2 mM ATP (high ATP), median, read-out: CDK12/CyclinK, 2 mM ATP (high ATP), IC50 - [mol/l] (median); for (IC50 CDK12 high ATP) to (Degradation DC50 CDK12) ratio: IC50 CDK12 at 2 mM ATP divided by CDK12 degradation DC50 (IF, CAL-120)
CDK12/CyclinK, sequence (Q9NYV4 other isoform, or with tags, fused parts or gaps): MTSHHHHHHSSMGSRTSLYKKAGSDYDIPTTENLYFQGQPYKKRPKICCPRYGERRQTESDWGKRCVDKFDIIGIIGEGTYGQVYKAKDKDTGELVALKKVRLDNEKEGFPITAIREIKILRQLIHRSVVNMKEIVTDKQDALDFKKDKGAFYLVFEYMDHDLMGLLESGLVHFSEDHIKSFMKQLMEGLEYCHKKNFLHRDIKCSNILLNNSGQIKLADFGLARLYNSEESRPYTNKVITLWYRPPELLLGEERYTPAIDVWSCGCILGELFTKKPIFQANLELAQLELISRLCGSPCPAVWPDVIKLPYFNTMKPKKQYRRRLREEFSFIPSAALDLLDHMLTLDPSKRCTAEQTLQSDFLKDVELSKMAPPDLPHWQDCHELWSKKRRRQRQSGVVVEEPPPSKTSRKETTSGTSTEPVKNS
CDK12/CyclinK, sequence (O75909 other isoform, or with tags, fused parts or gaps partner): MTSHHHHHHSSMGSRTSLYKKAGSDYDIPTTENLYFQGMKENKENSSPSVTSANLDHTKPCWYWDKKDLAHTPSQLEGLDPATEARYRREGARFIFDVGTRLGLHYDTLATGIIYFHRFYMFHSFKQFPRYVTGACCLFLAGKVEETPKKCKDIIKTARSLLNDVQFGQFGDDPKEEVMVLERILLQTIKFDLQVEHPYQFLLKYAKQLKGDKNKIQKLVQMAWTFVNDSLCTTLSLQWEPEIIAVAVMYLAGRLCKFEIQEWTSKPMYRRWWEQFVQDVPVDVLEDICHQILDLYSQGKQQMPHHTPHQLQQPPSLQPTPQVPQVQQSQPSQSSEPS
Method: In the context of the present invention, the term “IC50 CDK12 hATP” refers to the IC50 values obtained according to the assay described in this section (2.2) herein below, i.e. the IC50 values for the inhibition of CDK12 at high (2 mM) ATP.
CDK12/CycK-inhibitory activity of compounds of the present invention at 2 millimol/L adenosine-tri-phosphate (ATP) was quantified employing the TR-FRET (TR-FRET=Time Resolved Fluorescence Energy Transfer) based CDK12/CycK activity inhibition assay as described in the following paragraphs.
A complex of human recombinant CDK12 and human recombinant CycK (both N-terminally His-tagged, expression and purification as described above) was used as enzyme. As substrate for the kinase reaction biotinylated peptide biotin-Ahx-KFELLPTPPLSPSRRSGL (C-terminus in amid form) was used which can be purchased e.g. form the company Biosyntan (Berlin-Buch, Germany).
For the assay 50 nanoL of a 100 fold concentrated solution of the test compound in DMSO was pipetted into either a black low volume 384 well microtiter plate or a black 1536 well microtiter plate (both Greiner Bio-One, Frickenhausen, Germany), 2 microL of a solution of CDK12/CycK in aqueous assay buffer [25 millimol/L HEPES pH 7.5, 20 millimol/L MgCl2, 5 millimol/L β-glycerophosphate, 2 millimol/L EGTA, 1.0 millimol/L dithiothreitol, 0.01% (v/v) Nonidet-P40 (Sigma), 0.01% (w/v) bovine serum albumin] were added and the mixture was incubated for 15 min at 22° C. to allow pre-binding of the test compounds to the enzyme before the start of the kinase reaction. Then the kinase reaction was started by the addition of 3 microL of a solution ATP (3.33 millimol/L=>final conc. in the 5 microL assay volume is 2 millimol/L) and substrate (1.67 micromol/L=>final conc. in the 5 microL assay volume is 1 micromol/L) in assay buffer and the resulting mixture was incubated for a reaction time of 60 min at 22° C. The concentration of CDK12/CycK was adjusted depending of the activity of the enzyme lot and was chosen appropriate to have the assay in the linear range, typical concentrations were about 0.75 nanomol/L. The reaction was stopped by the addition of 3 microL of a solution of TR-FRET detection reagents (125 nanomol/L streptavidine-XL665 [Cisbio Bioassays, Codolet, France] and 0.67 nanomol/L anti-Phospho-c-Myc (Ser 62) (E1J4K)-antibody from Cell Signalling [#13748] and 2 nanomol/L LANCE EU-W1024 labeled anti-rabbit IgG antibody [Perkin-Elmer, product no. 0083]) in an aqueous EDTA-solution (133 millimol/L EDTA, 0.27% (w/v) bovine serum albumin in 66.7 millimol/L HEPES pH 7.5).
The resulting mixture was incubated 1 h at 22° C. to allow the formation of complex between the phosphorylated biotinylated peptide and the detection reagents. Subsequently the amount of phosphorylated substrate was evaluated by measurement of the resonance energy transfer from the Eu-chelate to the streptavidine-XL. Therefore, the fluorescence emissions at 620 nm and 665 nm after excitation at 350 nm was measured in a TR-FRET reader, e.g. a Pherastar FS (BMG Labtechnologies, Offenburg, Germany) or a Viewlux (Perkin-Elmer). The ratio of the emissions at 665 nm and at […] was taken as the measure for the amount of phosphorylated substrate. The data were normalised (enzyme reaction without inhibitor=0% inhibition, all other assay components but no enzyme=100% inhibition).

CDK12 = CDK12 (Homo sapiens (Human), UniProt Q9NYV4); assay: CDK12 nuclear protein level: immunofluorescence/high content analysis in CAL-120 cells; type: cell-based; conditions: 24 h, nuclear CDK12 staining intensity, median, read-out: CDK12 degradation IF, DC50 - [mol/l] (median)
CDK12, sequence (Q9NYV4 whole entry): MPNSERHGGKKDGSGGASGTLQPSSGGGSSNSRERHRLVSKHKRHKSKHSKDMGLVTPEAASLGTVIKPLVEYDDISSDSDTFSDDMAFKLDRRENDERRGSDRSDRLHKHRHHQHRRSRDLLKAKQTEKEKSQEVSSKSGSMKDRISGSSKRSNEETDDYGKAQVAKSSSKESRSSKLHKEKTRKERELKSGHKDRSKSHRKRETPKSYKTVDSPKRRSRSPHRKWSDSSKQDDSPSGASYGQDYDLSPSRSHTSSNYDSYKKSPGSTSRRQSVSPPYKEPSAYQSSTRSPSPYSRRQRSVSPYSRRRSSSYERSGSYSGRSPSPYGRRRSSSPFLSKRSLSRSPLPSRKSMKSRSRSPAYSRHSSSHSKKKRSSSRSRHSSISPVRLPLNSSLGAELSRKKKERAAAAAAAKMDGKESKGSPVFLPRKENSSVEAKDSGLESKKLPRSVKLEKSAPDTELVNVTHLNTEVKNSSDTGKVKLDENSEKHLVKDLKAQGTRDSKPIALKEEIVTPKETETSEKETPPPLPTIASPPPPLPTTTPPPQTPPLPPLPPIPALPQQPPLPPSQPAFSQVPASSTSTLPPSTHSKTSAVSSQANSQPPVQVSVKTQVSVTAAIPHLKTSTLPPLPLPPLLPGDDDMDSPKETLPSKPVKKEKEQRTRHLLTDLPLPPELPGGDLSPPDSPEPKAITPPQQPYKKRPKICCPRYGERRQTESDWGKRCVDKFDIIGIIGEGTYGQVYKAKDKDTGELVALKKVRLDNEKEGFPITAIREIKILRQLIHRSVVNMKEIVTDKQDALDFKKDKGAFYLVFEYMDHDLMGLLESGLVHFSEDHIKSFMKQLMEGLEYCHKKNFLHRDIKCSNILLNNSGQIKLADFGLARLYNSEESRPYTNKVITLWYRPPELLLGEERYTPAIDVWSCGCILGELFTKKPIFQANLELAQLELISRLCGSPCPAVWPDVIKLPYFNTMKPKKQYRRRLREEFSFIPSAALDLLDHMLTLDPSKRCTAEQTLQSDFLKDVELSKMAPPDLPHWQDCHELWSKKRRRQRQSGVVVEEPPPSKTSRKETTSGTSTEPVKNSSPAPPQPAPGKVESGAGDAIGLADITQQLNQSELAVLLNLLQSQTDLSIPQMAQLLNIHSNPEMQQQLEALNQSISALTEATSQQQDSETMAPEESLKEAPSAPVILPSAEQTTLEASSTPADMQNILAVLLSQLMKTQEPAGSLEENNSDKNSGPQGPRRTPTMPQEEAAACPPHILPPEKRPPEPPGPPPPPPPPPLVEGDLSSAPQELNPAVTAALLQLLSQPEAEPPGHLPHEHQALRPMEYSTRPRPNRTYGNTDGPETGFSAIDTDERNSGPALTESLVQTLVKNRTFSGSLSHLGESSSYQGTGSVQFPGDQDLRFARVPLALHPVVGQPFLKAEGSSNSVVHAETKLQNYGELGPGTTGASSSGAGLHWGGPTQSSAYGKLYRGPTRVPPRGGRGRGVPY
CDK12, sequence (O75909 whole entry partner): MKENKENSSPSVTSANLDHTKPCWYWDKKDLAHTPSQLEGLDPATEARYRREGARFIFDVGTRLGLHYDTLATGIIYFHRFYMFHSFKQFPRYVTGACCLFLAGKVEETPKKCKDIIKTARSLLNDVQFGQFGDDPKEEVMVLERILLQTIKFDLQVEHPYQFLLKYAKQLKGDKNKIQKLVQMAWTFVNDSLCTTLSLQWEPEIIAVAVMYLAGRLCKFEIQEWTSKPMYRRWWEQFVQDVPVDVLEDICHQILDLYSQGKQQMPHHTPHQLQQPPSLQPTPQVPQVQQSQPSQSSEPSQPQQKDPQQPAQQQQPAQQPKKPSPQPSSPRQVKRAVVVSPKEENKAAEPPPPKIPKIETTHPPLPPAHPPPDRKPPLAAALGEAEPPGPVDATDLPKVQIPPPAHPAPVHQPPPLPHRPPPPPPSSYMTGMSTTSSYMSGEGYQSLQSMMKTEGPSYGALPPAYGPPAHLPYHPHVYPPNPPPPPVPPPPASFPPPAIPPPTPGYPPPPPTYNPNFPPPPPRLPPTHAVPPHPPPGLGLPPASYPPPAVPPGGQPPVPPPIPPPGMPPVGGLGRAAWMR
Method: In the context of the present invention, the term “DC50 CDK12” refers to the DC50 values obtained according to the assay described in this section (7) herein below, i.e. the DC50 values for the degradation of CDK12.
CAL-120 human breast cancer cells (DSMZ ACC 459) are seeded in 1536-well microtiter plates (800 cells per well) containing 50 nanoL of compounds in Dose-Response. Control wells received DMSO or Example 4. Plates are then incubated for 24 h at 37° C. in an humidified incubator and fixed with 4% PFA for 10 min. Then immunofluorescence (IF) against CDK12 (CellSignalling CDK12 Antibody #11973, rabbit, 1:100 dilution) is performed using standard IF protocols. Cells are then stained with Hoechst 33342 (Life Technologies, H-1399, 0.1 microg/ml) and imaged on an automated confocal microscopy system (e.g. Perkin Elmer Opera Phenix). Nuclear and cytoplasmic intensity as well as the nuclear/cytoplasmic intensity ratio is determined by automated image analysis using custom generated scripts (MetaXpress). Data is then transferred to Genedata Screener software, normalized to DMSO and control and DC50 values (degrading concentration to achieve 50% reduction of nuclear CDK12 staining intensity relative to controls) are reported.

SMILES | IC50 (CDK12/CyclinK) | (IC50 CDK12 high ATP) to (Degradation DC50 CDK12) ratio (CDK12/CyclinK) | DC50 (CDK12) | IC50 [1]
FC(F)(F)c1ccc(-c2nnc(CNc3nc(N4CCOCC4)nc4c(Br)cnn34)[nH]2)cc1 [Example 1, 8-bromo-2-(morpholin-4-yl)-N-({5-[4-(trifluoromethyl)phenyl]-4H-1,2,4-triazol-3-yl}methyl)pyrazolo[1,5-a][1,3,5]triazin-4-amine] | 1.83 µM | 0.77 | 2.38 µM | 0.514 µM
FC(F)(F)Oc1ccc(-c2cnc(CNc3nc(N4CCOCC4)nn4c(C(F)(F)F)cnc34)[nH]2)cc1 [Example 8, 2-(morpholin-4-yl)-N-({5-[4-(trifluoromethoxy)phenyl]-1H-imidazol-2-yl}methyl)-7-(trifluoromethyl)imidazo[2,1-f][1,2,4]triazin-4-amine] | 0.00834 µM | 9.34E−03 | 0.893 µM | 0.0382 µM
FC(F)(F)Oc1ccc(-c2cnc(CNc3nc(N4CCOCC4)nc4c(Br)cnn34)[nH]2)cc1 [Example 4, 8-bromo-2-(morpholin-4-yl)-N-({5-[4-(trifluoromethoxy)phenyl]-1H-imidazol-2-yl}methyl)pyrazolo[1,5-a][1,3,5]triazin-4-amine] | 0.0348 µM | <0.03 | > 1 µM | 0.00694 µM
FC(F)(F)Oc1ccc(-c2nnc(CNc3nc(N4CCOCC4)nc4c(Br)cnn34)[nH]2)cc1 [Example 2, 8-bromo-2-(morpholin-4-yl)-N-({5-[4-(trifluoromethoxy)phenyl]-4H-1,2,4-triazol-3-yl}methyl)pyrazolo[1,5-a][1,3,5]triazin-4-amine] | 0.75 µM | <0.27 | > 2.79 µM | 0.272 µM

More lines, main results first:

IC50 (CDK12/CyclinK) | (IC50 CDK12 high ATP) to (Degradation DC50 CDK12) ratio (CDK12/CyclinK) | DC50 (CDK12) | SMILES | IC50 [1]
0.0119 µM | <0.01 | > 1 µM | FC(F)(F)c1ccc(-c2nnc(CNc3nc(N4CCOCC4)nn4c(C(F)(F)F)cnc34)[nH]2)cn1 [Example 20, 2-(morpholin-4-yl)-7-(trifluoromethyl)-N-({5-[6-(trifluoromethyl)pyridin-3-yl]-4H-1,2,4-triazol-3-yl}methyl)imidazo[2,1-f][1,2,4]triazin-4-amine] | 0.0538 µM
0.00309 µM | <3.09E−3 | > 1 µM | FC(F)(F)c1ccc(-c2cnc(CNc3nc(N4CCOCC4)nn4c(C(F)(F)F)cnc34)[nH]2)cn1 [Example 12, 2-(morpholin-4-yl)-7-(trifluoromethyl)-N-({5-[6-(trifluoromethyl)pyridin-3-yl]-1H-imidazol-2-yl}methyl)imidazo[2,1-f][1,2,4]triazin-4-amine] | 0.00757 µM
0.00921 µM | 9.69E−03 | 0.95 µM | FC(F)(F)c1ccc(-c2cnc(CNc3nc(N4CCOCC4)nc4c(C(F)(F)F)cnn34)[nH]2)cc1 [Example 9, 2-(morpholin-4-yl)-8-(trifluoromethyl)-N-({5-[4-(trifluoromethyl)phenyl]-1H-imidazol-2-yl}methyl)pyrazolo[1,5-a][1,3,5]triazin-4-amine] | 0.102 µM
